# Measurements from publication PMC6476934, “A Flavor Lactone Mimicking AHL Quorum-Sensing Signals Exploits the Broad Affinity of the QsdR Regulator to Stimulate Transcription of the Rhodococcal qsd Operon Involved in Quorum-Quenching and Biocontrol Activities” (Frontiers in Microbiology, 2019).
# Key:
# QsdR = biological target: T1, QsdR (Rhodococcus erythropolis, UniProt A0A0C2W9F0); test: EMSA with biotinylated qsdR-qsdA intergenic DNA, release of DNA; assay type: binding; conditions: ligand/QsdR molecular ratio 0.1 to 100, 3 μg QsdR, 0.4 ng DNA, room temperature
# T1 construct: gene I3517_23075; qsdR ORF (563 bp NdeI-BamHI fragment) in pET19, His-tagged, E. coli BL21DE3, Ni-NTA; about 20 kDa; dimer
# T1 sequence (A0A0C2W9F0 1-186): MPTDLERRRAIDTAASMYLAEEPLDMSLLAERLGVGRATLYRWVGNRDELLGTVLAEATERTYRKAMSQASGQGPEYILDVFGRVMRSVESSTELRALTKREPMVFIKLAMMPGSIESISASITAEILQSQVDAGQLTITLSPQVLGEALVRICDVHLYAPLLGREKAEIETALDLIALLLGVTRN
# [1] = biological target: T2, QsdR (His-tagged) (Rhodococcus erythropolis R138?) (UniProt A0A0C2W9F0); test: EMSA; conditions: LightShift Chemiluminescent EMSA Kit buffer (composition, salt, pH not stated); QsdR in Qiagen elution buffer with 50% glycerol; 20 min at room temperature …
# T2 sequence: T1 sequence (A0A0C2W9F0 1-186)
compound,measurement,setting,value
"CCC1CCC(=O)O1 (stereo not drawn) [GCL, γ-caprolactone]","EMSA with biotinylated qsdR-qsdA intergenic DNA, release of DNA",QsdR; GCL in methanol-water 20:80,The addition of increasing amounts of GCL led to a proportional increase in the amount
"N[C@H]1CCOC1=O [HSL, homoserine lactone]","EMSA with biotinylated qsdR-qsdA intergenic DNA, release of DNA","QsdR; HSL in 10 mM Tris pH 7, positive control",inhibition of the DNA-binding activity of QsdR was also observed in the presence of HSL
GGTAGGCATCGGGACATTCTCTCCGGTTGTCCGGTACTGCACAATTTCGGCGGTCGAACAGAGGTGGGCTTCGGGTGGCTCGAGCCTATTGACGAACCAAGCGACGTGAGACACACTAGCTCATTGTCTCATGTTAGTGATGGCGATCACAGTCAGGGGTTCGATCGATGAG (double strand) [qsdR-qsdA intergenic DNA fragment],binding,[1],binds
